From ChEMBL document CHEMBL4177656, “Improving metabolic stability with deuterium: The discovery of GPU-028, a potent free fatty acid receptor 4 agonists” (Bioorg Med Chem, 2017) come the findings set out here.

SMILES strings stand for the structures. pEC50: −log10 of the molar value. Activity calls are given as the source filed them. The calls are words filed in the database; no cut-off is given here.

A short description of data set [1]: Cmax in Sprague-Dawley rat at 10 mg/kg, po administered as single dose by LC-PDA-MS/MS analysis. Format: ADME, organism-based. Also noted: dose 10 mg/kg, route oral. The settings on record: in vivo.
For data set [2], the system named is Mus musculus. As to the kind of experiment: Hypoglycemic activity in C57BL/6 DIO mouse model assessed as fasting glucose levels at 30 mg/kg administered via gavage twice daily for 28 days measured on day 29 by OGTT. The class given is functional, organism-based. As to conditions: tested as the 2H-labelled form.
A short description of data set [3]: Plasma clearance in rat. Format: ADME, organism-based.
Data set [4] can be described thus: Clearance in Sprague-Dawley rat at 10 mg/kg, po administered as single dose by LC-PDA-MS/MS analysis. Format: ADME, organism-based. The settings on record: in vivo.
A short description of data set [5]: Half life in Sprague-Dawley rat at 10 mg/kg, po administered as single dose by LC-PDA-MS/MS analysis. As to conditions: in vivo. Format: ADME, organism-based.
Data set [6] concerns Mus musculus. The experiment in a line: Hypoglycemic activity in C57BL/6 DIO mouse model assessed as decrease in blood glucose AUC (0 to 120 mins) at 30 mg/kg administered via gavage twice daily for 28 days measured before glucose challenge by OGTT. Format: functional, organism-based. As to conditions: tested as the 2H-labelled form.
The nature of data set [7]: AUC (0 to 24 hrs) in Sprague-Dawley rat at 10 mg/kg, po administered as single dose by LC-PDA-MS/MS analysis. The class given is ADME, organism-based. Details: time < 24 hr, dose 10 mg/kg, route oral. The settings on record: in vivo.
The subject of data set [8] is Mus musculus. As to the kind of experiment: Hypoglycemic activity in C57BL/6 DIO mouse model assessed as decrease in blood glucose AUC (0 to 120 mins) at 30 mg/kg administered via gavage twice daily for 28 days measured on day 29 by OGTT. As to conditions: tested as the 2H-labelled form. Format: functional, organism-based.
The test system of data set [9] is Mus musculus. As to the kind of experiment: Toxicity in C57BL/6 DIO mouse model at 30 mg/kg administered via gavage twice daily for 28 days. Format: organism-based. As to conditions: in vivo, po, 672 h.
The target in data set [10] is T1, Free fatty acid receptor 4 (Homo sapiens, UniProt Q5NUL3).
T1 sequence (Q5NUL3 whole entry): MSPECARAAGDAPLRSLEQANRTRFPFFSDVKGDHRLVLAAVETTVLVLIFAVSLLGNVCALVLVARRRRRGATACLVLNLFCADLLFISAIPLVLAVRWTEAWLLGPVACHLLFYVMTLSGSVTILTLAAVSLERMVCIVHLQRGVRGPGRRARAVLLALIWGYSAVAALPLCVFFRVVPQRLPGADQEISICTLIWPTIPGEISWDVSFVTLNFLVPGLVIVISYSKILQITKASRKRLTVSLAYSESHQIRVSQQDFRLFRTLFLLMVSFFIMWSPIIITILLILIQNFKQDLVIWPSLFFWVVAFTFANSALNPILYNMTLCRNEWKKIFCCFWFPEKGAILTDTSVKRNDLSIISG
As to the kind of experiment: Agonist activity at human FFAR4 expressed in CHO cells assessed as beta-arrestin recruitment after 90 mins by luminescence assay. The class given is functional, cell-based. (Recruitment of arrestin is a read-out of receptor activation apart from second messengers.)

The term Cmax denotes the peak of the concentration-time curve. One may read the clearance as the rate of elimination divided by the concentration. High values mean a high capacity for elimination, low ones a low capacity for elimination. One may read the CL/F as clearance divided by bioavailability, as obtained after extravascular dosing. Usually half-life stands for the time in which the quantity being followed falls by half. Low values mean fast loss, high ones slow loss. Broadly, the AUC(0-t) is the area under the concentration-time curve up to a stated or last time point. A lower AUC(0-t) goes with less exposure. In [1], `Cc1ccc(-c2ccc(F)cc2COc2ccc(CCC(=O)O)cc2)cc1` yielded a Cmax of 969 ng/mL. Moreover, the result in data set [2] and in data set [8] was Active. In [3], this compound gave a clearance of 61.2 mL/min/kg. Besides, the CL/F in data set [4] is 61.2 mL/min/kg. Also, the half-life in data set [5] was 47.4 min. For the same compound, the outcome in data set [6] was inactive. Further, in [7], the AUC(0-t) at 24 h came to 1370 ng·h/mL.
Consider `[2H]C([2H])(Cc1ccc(OCc2cc(F)ccc2-c2ccc(C)cc2)cc1)C(=O)O`, for which the Activity entry in data set [9] is “Non-Toxic”. The concentration in [1] peaked (Cmax) at 2040 ng/mL. Besides, in data set [4], the CL/F is 16.2 mL/min/kg. In data set [5], this compound had a half-life of 99.6 min. In data set [7], the AUC(0-t) at 24 h worked out at 6280 ng·h/mL.
For orientation: pEC50 means −log10 of the EC50, conventionally taken in molar units. Take `Cc1cc(OCCCS(C)(=O)=O)cc(C)c1-c1cccc(COc2ccc3c(c2)OC[C@H]3CC(=O)O)c1`: the negative logarithm of the EC50 (pEC50) in [10] was less than 5.00.
